Reference: US20240262795A1, “PYRAZINE COMPOUNDS AS INHIBITORS OF FLT3” (Biomea Fusion, Inc., priority 2021, published 2024)

How the values were obtained:
K-562 = experiment: Proliferation inhibition, CellTiter-Glo, K-562; assay type: cell-based, human; conditions: Homo sapiens, K562, 96 h; K-562 cells, IC50 (4 days), CellTiter-Glo; read-out: K-562 IC50
In short: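 About 10,000 cells per well in RPMI-1640 with 10% FBS. Compounds added 2 h after seeding at eight concentrations in duplicate (0.2% DMSO as 100% proliferation), then incubated ~96 h at 37° C, 5% CO2. ATP measured by CellTiter-Glo luminescence; IC50 from four-parameter logistic fit.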

FLT3-ITD = molecular target: T1, FLT3-ITD (Homo sapiens, UniProt P36888, DUP595-601); experiment: FLT3-ITD Lance Ultra TR-FRET kinase assay; assay type: biochemical
T1 construct: purchased Signalchem F-12-12CG-10
T1 sequence (P36888 with tags, fused parts or gaps DUP595-601 limits assumed): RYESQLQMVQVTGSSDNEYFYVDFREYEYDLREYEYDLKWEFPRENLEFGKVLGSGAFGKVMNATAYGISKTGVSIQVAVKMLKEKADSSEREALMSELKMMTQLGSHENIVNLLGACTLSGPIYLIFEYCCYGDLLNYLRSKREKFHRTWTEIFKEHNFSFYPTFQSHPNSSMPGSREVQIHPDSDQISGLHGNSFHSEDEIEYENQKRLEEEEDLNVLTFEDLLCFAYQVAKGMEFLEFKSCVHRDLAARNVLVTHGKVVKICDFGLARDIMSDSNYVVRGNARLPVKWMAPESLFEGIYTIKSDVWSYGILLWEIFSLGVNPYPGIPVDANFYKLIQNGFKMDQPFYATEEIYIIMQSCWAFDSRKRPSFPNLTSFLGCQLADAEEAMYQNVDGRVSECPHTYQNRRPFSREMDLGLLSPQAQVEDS
In short: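 Lance Ultra TR-FRET with 50 nM ULight-JAK-1 (Tyr1023) peptide, Eu-anti-phosphotyrosine (PT66) detection, in HEPES pH 7.5 buffer at 23° C, 30 min enzyme/compound preincubation. WT: 0.5 nM enzyme, 100 μM ATP, 30 min; ITD: 0.0625 nM, 50 μM ATP, 60 min. IC50 by four-parameter fit of 11-point 3× dilutions.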

SMILES | IC50 (K-562) [nM] | IC50 (FLT3-ITD) [nM]
CCc1nc(C(N)=O)c(Nc2cccc(CCNC(=O)CN(C)C(=O)/C=C/CN3CCC3)c2)nc1N(C)CC [Compound 516A, (E)-3-((3-(2-(2-(4-(azetidin-1-yl)-N-methylbut-2-enamido)acetamido)ethyl)phenyl)amino)-6-ethyl-5-(ethyl(methyl)amino) pyrazine-2-carboxamide] | > 500 | 0.101 to 0.2
CCc1nc(C(N)=O)c(Nc2ccnc(CCNC(=O)[C@H](C)N(C)C(=O)/C=C/CN(C)C)c2)nc1C1CC1 [Compound 310, (S,E)-5-cyclopropyl-3-((2-(2-(2-(4-(dimethylamino)-N-methylbut-2-enamido)propanamido)ethyl)pyridin-4-yl)amino)-6-ethylpyrazine-2-carboxamide] | > 500 | 0.501 to 1
CCc1nc(C(N)=O)c(Nc2cccc(CCNC(=O)CN(C)C(=O)/C=C/CN(C)C)c2)nc1C1CC1 [Compound 219, (E)-5-cyclopropyl-3-((3-(2-(2-(4-(dimethylamino)-N-methylbut-2-enamido)acetamido)ethyl)phenyl)amino)-6-ethylpyrazine-2-carboxamide] | > 500 | 
Cc1nc(C(N)=O)c(Nc2cccc(CCNC(=O)[C@H](C)N(C)C(=O)/C=C/CN(C)C)c2)nc1N(C)C(C)C [Compound 232, (S, E)-3-((3-(2-(2-(4-(dimethylamino)-N-methylbut-2-enamido)propanamido)ethyl)phenyl)amino)-5-(isopropyl (methyl)amino)-6-methylpyrazine-2-carboxamide] | > 500 | 0.501 to 1
CCc1nc(C(N)=O)c(Nc2cccc([C@@H](C)CNC(=O)CN(C)C(=O)/C=C/CN(C)C)c2)nc1C1CC1 [Compound 504, (R,E)-5-cyclopropyl-3-((3-(1-(2-(4-(dimethylamino)-N-methylbut-2-enamido)acetamido)propan-2-yl)phenyl)amino)-6-ethylpyrazine-2-carboxamide] | > 500 | 
CCc1nc(Nc2cccc([C@@H](C)CNC(=O)CN(C)C(=O)/C=C/CN3CCC3)c2)c(C(N)=O)nc1CC [Compound 508, (R, E)-3-((3-(1-(2-(4-(azetidin-1-yl)-N-methylbut-2-enamido)acetamido)propan-2-yl)phenyl)amino)-5,6-diethylpyrazine-2-carboxamide] | > 500 | 0.501 to 1
CCc1nc(C(N)=O)c(Nc2cccc([C@@H](C)CNC(=O)CN(C)C(=O)/C=C/CN3CCC3)c2)nc1N(C)CC [Compound 518, (R,E)-3-((3-(1-(2-(4-(azetidin-1-yl)-N-methylbut-2-enamido)acetamido)propan-2-yl)phenyl)amino)-6-ethyl-5-(ethyl(methyl)amino)pyrazine-2-carboxamide] | > 500 | 0.101 to 0.2
CCc1nc(C(N)=O)c(Nc2ccc(N3CCC(N4CCN(C)CC4)CC3)c(OC)c2)nc1NC1CCOCC1 [Gilteritinib, gilteritinib, reference compound] | 100 to 500 | 
CCc1nc(C(N)=O)c(Nc2cccc([C@@H](C)CNC(=O)CN(C)C(=O)/C=C/CN3CCC3)c2)nc1C1CC1 [Compound 506, (R,E)-3-((3-(1-(2-(4-(azetidin-1-yl)-N-methylbut-2-enamido)acetamido)propan-2-yl)phenyl)amino)-5-cyclopropyl-6-ethylpyrazine-2-carboxamide] | > 500 | 0.201 to 0.5
CCOc1nc(Nc2cccc(CCNC(=O)CN(C)C(=O)/C=C/CN3CCC3)c2)c(C(N)=O)nc1CC [Compound 602, (E)-3-((3-(2-(2-(4-(azetidin-1-yl)-N-methylbut-2-enamido)acetamido)ethyl)phenyl)amino)-5-ethoxy-6-ethylpyrazine-2-carboxamide] | > 500 | 0.201 to 0.5
CCc1nc(C(N)=O)c(Nc2ccnc(CCNC(=O)[C@H](C)N(C)C(=O)/C=C/CN(C)C)c2)nc1N(C)C(C)C [Compound 605, (S, E)-3-((2-(2-(2-(4-(dimethylamino)-N-methylbut-2-enamido)propanamido)ethyl)pyridin-4-yl)amino)-6-ethyl-5-(isopropyl (methyl)amino) pyrazine-2-carboxamide] | > 500 | 0.201 to 0.5
CCc1nc(C(N)=O)c(Nc2cccc(CCNC(=O)CN(C)C(=O)/C=C/CN3CCC3)c2)nc1OC(C)C [Compound 603, (E)-3-((3-(2-(2-(4-(azetidin-1-yl)-N-methylbut-2-enamido)acetamido)ethyl)phenyl)amino)-6-ethyl-5-isopropoxypyrazine-2-carboxamide] | > 500 | 0.201 to 0.5
CCc1nc(C(N)=O)c(Nc2cccc(CCNC(=O)[C@H](C)N(C)C(=O)/C=C/CN(C)C)c2)nc1N(C)C(C)C [Compound 204, (S,E)-3-((3-(2-(2-(4-(dimethylamino)-N-methylbut-2-enamido)propanamido)ethyl)phenyl)amino)-6-ethyl-5-(isopropyl(methyl)amino)pyrazine-2-carboxamide] | > 500 | 0.101 to 0.2
CCc1nc(C(N)=O)c(Nc2cccc(CCNC(=O)[C@H](C)N(C)C(=O)/C=C/CN(C)C)c2)nc1NC(C)C [Compound 205, (S,E)-3-((3-(2-(2-(4-(dimethylamino)-N-methylbut-2-enamido)propanamido)ethyl)phenyl)amino)-6-ethyl-5-(isopropylamino)pyrazine-2-carboxamide] | > 500 | 0.101 to 0.2
CCCc1nc(Nc2cccc([C@@H](C)CNC(=O)CN(C)C(=O)/C=C/CN3CCC3)c2)c(C(N)=O)nc1CC [Compound 507, (R,E)-3-((3-(1-(2-(4-(azetidin-1-yl)-N-methylbut-2-enamido)acetamido)propan-2-yl)phenyl)amino)-6-ethyl-5-propylpyrazine-2-carboxamide] | > 500 | 0.201 to 0.5
CCc1nc(C(N)=O)c(Nc2cccc(CCNC(=O)CN(C)C(=O)/C=C/CN(C)C)c2)nc1N(C)CC [Compound 252, (E)-3-((3-(2-(2-(4-(dimethylamino)-N-methylbut-2-enamido)acetamido)ethyl)phenyl)amino)-6-ethyl-5-(ethyl (methyl)amino) pyrazine-2-carboxamide] | > 500 | 0.101 to 0.2
CCc1nc(C(N)=O)c(Nc2cc(F)cc(CCNC(=O)CN(C)C(=O)/C=C/CN3CCC3)c2)nc1C1CC1 [Compound 516, (E)-3-((3-(2-(2-(4-(azetidin-1-yl)-N-methylbut-2-enamido)acetamido)ethyl)-5-fluorophenyl)amino)-5-cyclopropyl-6-ethylpyrazine-2-carboxamide] | > 500 | 0.101 to 0.2
Cc1nc(C(N)=O)c(Nc2cccc(CCNC(=O)CN(C)C(=O)/C=C/CN(C)C)c2)nc1N(C)C(C)C [Compound 250, (E)-3-((3-(2-(2-(4-(dimethylamino)-N-methylbut-2-enamido)acetamido)ethyl)phenyl)amino)-5-(isopropyl(methyl)amino)-6-methylpyrazine-2-carboxamide] | > 500 | 0.201 to 0.5
CCc1nc(C(N)=O)c(Nc2cccc(CCNC(=O)[C@H](C)N(C)C(=O)/C=C/CNC)c2)nc1N(C)C(C)C [Compound 307, (S,E)-6-ethyl-5-(isopropyl(methyl)amino)-3-((3-(2-(2-(N-methyl-4-(methylamino)but-2-enamido)propanamido)ethyl)phenyl)amino)pyrazine-2-carboxamide] |  | 0.201 to 0.5
